The subject of test [1] is DAS Soybean cell suspensions. Put plainly: Glufosinate selection of soybean suspension cells. In kind it is cell-based. How it is done:
The DAS Soybean cell suspensions were cultured on a 3 d cycle with 10 ml of settled suspension volume transferred to 115 ml of fresh liquid medium. Settled cell volume was determined by allowing the cell suspension to settle for 2 min in the 125-mL flask after vigorous swirling and then drawing cells from the bottom of the flask with a wide bore 10 ml pipette. The flasks were then transferred to orbital shakers at 140 rpm.
Aliquots of 4 ml of the suspension cells at 0.72 OD^600 was transferred along with 200 μM acetosyringone (AS) onto a 100×25 sterile Petri plate. EHA105 Agrobacterium suspension at a density of 1.2 OD^650 in a 100 μL volume was added and mixed well. The Agrobacterium and suspension cell mixture was swirled well and the plate was transferred to dark growth chamber where the temperature was maintained at 25° C.
13.2.1—Selection of soybean suspension cells and isolation of transformed colonies. After 4 days of co-cultivation the plate was swirled again to mix the suspension well and a 1.5 ml aliquot was transferred to the selection medium and spread on the gel medium on a 100×15 ml Petri-plate. […] After a 10 min drying in the hood the plates were incubated for 4 weeks in dark at 28° C. Colonies appeared in selection and a total of 11 colonies were transferred to fresh medium from 3 different experiments and maintained for 3-4 months. […]

In test [2] the test system is Non-transformed Hi-II callused suspension tissue. Kind of test: Dose response of non-transformed maize callus tissue. The class given is cell-based.
The target of another test is T1, AAD1 (v1) (Sphingobium herbicidovorans, UniProt Q8KSC8).
T1 construct: made in house; host or cells: E. coli BL-21 Star (DE3), plasmid pDAB3203
Kind of test: HPLC analysis of herbicide degradation by AAD1 (v1) cell extract. In kind it is biochemical. To be noted: AAD1 (v1) cell extract, same conditions as 2,4-D.

Test [3] has as its system Arabidopsis thaliana var. Columbia. Put plainly: Arabidopsis plate test bioassay for herbicide degradation. The conditions noted are these: for IC50: Arabidopsis thaliana, 168 h. The class given is in vivo.
Another test deals with wt ARBTH. Put plainly: In vitro plate test of herbicide cross resistance: wild-type Arabidopsis. To be noted: 7 days. The class given is in vivo, Arabidopsis thaliana. As for the experimental part: (§1) The ability of AAD1 (v3) to provide resistance to other aryloxyphenoxyalkanoate herbicides in transgenic Arabidopsis was determined using a modified in vitro plate assay. Seeds from wild-type Arabidopsis thaliana as well as Arabidopsis thaliana containing the plant optimized AAD1 (v3) gene (T4 homozygous plants id=PAAD1.315.064) were sterilized by agitating for 10 min in a 50% bleach solution. These seeds were then rinsed four times with sterile water to remove the bleach.
(§2) Dose response assays utilized a nutrient media (see below) supplemented with various rates of test compounds. The test compounds were added to the heated media (55° C.) as concentrated solutions in DMSO. Control wells had the appropriate amount of DMSO without any additional compound. The final concentration of DMSO never exceeded 1% (v/v). After thorough mixing, a 6 mL aliquot of the warm media containing the appropriate concentration of compound was added to each well of a 6-well, flat bottom, polystyrene tissue culture tray (Falcon 353046, Becton Dickson and Company, Franklin Lakes, N.J.). After the media solidified, approximately 20 to 30 Arabidopsis seeds were applied on top of the solidified media and the remaining 2 mL of media was poured over the seeds. The plates were lightly agitated to disperse the seeds, covered and allowed to cool until the media had completely solidified. The plates were incubated for 7 days at 25° C. under continual fluorescent lighting (75 μE m^−2 s^−1). Nutrient Media Composition was as described in Example 2.2 and in Somerville and Orgen (1982).
(§3) Assessment of Growth Reduction. The apical portion of the Arabidopsis plants grown in the treated media was assessed visually relative to the apical portion of the plants grown in the media containing only DMSO. Values were recorded as % growth reduction. Assessments of root growth inhibition of the Arabidopsis plants grown in the treated media were achieved by carefully extracting the plants from the media and measuring the length of the root. These root lengths were then compared to the root length of the control plants to determine a % growth reduction. A minimum of five plants were assessed for each treatment. The values recorded are an average of all the plants assessed. The calculated concentration to reach 50% inhibition effect (I50) were determined for both root and shoots of wildtype and AAD1-transformed Arabidopsis. The ratios of resistant to sensitive biotypes are included in Table 19. A ratio>2 for both root and shoot measurements generally signifies significant resistance. The higher the ratio, the greater the level of resistance. […] The broad phenoxy auxin resistance is the first reported in planta.

A further test has as its system PAAD1.315.064 ARBTH. Kind of test: In vitro plate test of herbicide cross resistance: homozygous T4 AAD1 (v3) Arabidopsis. In kind it is in vivo, Arabidopsis thaliana. How it is done: as §1, §2, §3
The test system of test [4] is T4 Arabidopsis homozygous for AAD1 (v3) (line AAD1.01.315.076). Kind of test: Foliar-applied auxinic herbicides on homozygous T4 AAD1 (v3) Arabidopsis, % injury 14 DAT. To be noted: AAD1.01.315.076.T4 homozygous AAD1 plants. In kind it is in vivo, Arabidopsis thaliana. Put shortly:
(§4)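 Homozygous T4 AAD1 (v3) Arabidopsis (line AAD1.01.315.076) and a PAT/Cry1F transformed control were grown in pots and track-sprayed foliarly at 187 L/ha with herbicides formulated in 200 mM Hepes pH 7.5. Injury was rated 14 days after treatment, with 3-4 replicates averaged over two experiments.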

For test [5], the system named is transformed-control line containing PAT and Cry1F. Put plainly: Foliar-applied auxinic herbicides on control (PAT/Cry1F, wildtype) Arabidopsis, % injury 14 DAT. The class given is in vivo, Arabidopsis thaliana. To be noted: PatCry1f - Control. In outline: as §4
[6] abbreviates: resistant to sensitive biotype, >2 signifies resistance.

Where two headings read alike, the source gives them in different places.

T1 sequence (Q8KSC8 whole entry): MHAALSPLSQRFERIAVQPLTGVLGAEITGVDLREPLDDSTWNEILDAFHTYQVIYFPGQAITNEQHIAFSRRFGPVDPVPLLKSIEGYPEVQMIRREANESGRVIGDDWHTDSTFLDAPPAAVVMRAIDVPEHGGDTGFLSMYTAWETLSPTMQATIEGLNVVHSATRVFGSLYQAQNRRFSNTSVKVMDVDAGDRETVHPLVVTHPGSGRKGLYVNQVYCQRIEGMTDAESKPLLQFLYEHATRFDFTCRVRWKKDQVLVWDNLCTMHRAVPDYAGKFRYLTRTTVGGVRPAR

`CP(=O)(O)CCC(N)C(=O)O` (centres unmarked) [glufosinate ammonium]: the “response of non-transformed suspension cells” value in test [1] (0.5 mg/l) is listed as “sensitive”. Further, the “response of transformed colonies” value in test [1] (5 mg/L (5× concentration), up to 4 months) is given as “resistant”.

In the case of `N#Cc1ccc(Oc2ccc(O)cc2)c(F)c1` [cyhalofop phenol], the “callus growth relative to control without cyhalofop phenol” value in test [2] (1 μM) is reported as 76%.

Take `O=C(O)COc1nc(Cl)c(Cl)cc1Cl` [Triclopyr]: at AAD1 (v1), the “enzyme activity on substrate (HPLC)” value is listed as “No enzyme activity was detected”. Besides, the IC50 is 1000 nM in test [3] (AAD1 (v1)-expressing lysate, nominal concentration, read-out: GR50, Chemical + AAD1 v1) and 255 nM in test [3] (root length, 7 days, read-out: GR50, Chemical alone). Also, the GR50 ratio in test [3] (enzyme-expressing lysate vs blank vector, ≥ 2 = threshold for activity loss) is 1. For the same compound, the “wt ARBTH root 150” value with wt ARBTH (root) is recorded as 0.02 ppm. For the same compound, the “wt ARBTH shoot 150” value in the test with wt ARBTH (shoot) is 0.2 ppm. Further, the root ratio in the test on PAAD1.315.064 ARBTH (setting [6]) is given as 1. In addition, in the test with PAAD1.315.064 ARBTH (setting [6]), the shoot ratio is on record as 0.2. Besides, in the test with PAAD1.315.064 ARBTH (root and shoot assessment), the “resistance afforded by AAD1 (v3) in plate test” value is “did not effectively protect”. The “PAAD1.315.064 ARBTH root 150” value in the test on PAAD1.315.064 ARBTH (root, 7 days) is 0.02 ppm. Also, the “PAAD1.315.064 T3 ARBTH shoot 150” value in the test with PAAD1.315.064 ARBTH (shoot, 7 days) stood at 0.04 ppm. In addition, the “Ave % Injury 14DAT” value is 31% in test [4] (50 g ae/ha foliar); 58% in test [4] (200 g ae/ha foliar); 74% in test [4] (800 g ae/ha foliar); 97% in test [4] (3200 g ae/ha foliar); 36% in test [5] (50 g ae/ha foliar); 65% in test [5] (200 g ae/ha foliar). Further, the “Ave % Injury 14DAT” value in test [5] (800 g ae/ha foliar) stood at 84%; in test [5] (3200 g ae/ha foliar) it was 95%.

As to `Oc1ccc(Oc2ncc(C(F)(F)F)cc2Cl)cc1` [haloxyfop phenol], the “callus growth relative to control lacking haloxyfop phenol” value in test [2] (300 nM) was “equal to or greater than the control”.

(Values after patent US10450549B2, “Aryloxyphenoxypropionate tolerance in turfrgass species and use of AAD1 as a selectable marker” (Dow AgroSciences, LLC, priority 2004, dated 2019).)
